Experiments:
[1] = tested on: enterocytes; experiment: LPS-mediated NF-κB (p65) translocation in enterocytes, with and without TLR9 siRNA knock-down; type: cell-based
Protocol: FIG. 7A-E. LPS-mediated translocation in enterocytes which are either (A) untreated or treated with (B) 50 μg/ml LPS; (C) 50 μg/ml LPS+10 μM CpG; or (D) 10 μM CpG. (E) Bar graph showing the nuclear:cytoplasmic ratio for NF-κB in (A)-(D).
FIG. 9A-F. CpG-DNA reduces TLR4 signaling through TLR9 in enterocytes. (A) Western blot showing the amounts of TLR9 protein relative to actin in untreated enterocytes (Ctrl) or in enterocytes treated with 0.084 μM non-specific siRNA or siRNA specific for TLR9. (B)-(E) are immunofluorescence studies showing the relative amounts of p65 in the enterocyte nucleus versus its cytoplasm, when either (B) untreated or treated with (C) 50 μg/ml LPS; (D) 50 μg/ml LPS+10 μM CpG (in the context of normal TLR9 levels) or (E) 50 μg/ml LPS+10 μM CpG (in the context of TLR9 knockdown by siRNA). (E) Bar graph showing the results of (B)-(E).
A second series of experiments was designed to study the consequences of the TLR4 activator LPS and the TLR9 activator CpG on the mediator of activated TLR4, NFκB. As shown by comparing FIGS. 7A and B, LPS causes NFκB to translocate into the nucleus. The extent of translocation caused by LPS is decreased by co-exposure to CpG (FIGS. 7C and E).
All the foregoing three series of experiments have shown that CpG (an activator of TLR9) inhibited the effects of TLR4 activation, including its role in promoting inflammation. […]

[2] = tested on: enterocytes; experiment: LPS-mediated cytokine (IL-6) release from enterocytes; type: cell-based; conditions: 50 μg/ml LPS + 10 μM CpG
Protocol: FIG. 8. CpG-DNA reduces LPS-mediated cytokine release from enterocytes. Bar graph showing the level of supernatant IL-6 in enterocytes which were either untreated (“CTRL”) or treated with 50 μg/ml LPS, 50 m/ml LPS+10 μM CpG, or 10 μM CpG.

[3] = tested on: IEC-6 cells; experiment: TLR4 and TLR9 expression and distribution in enterocytes (Western blot, immunofluorescence); type: cell-based
Source text: FIG. 12. TLR4 and TLR9 expression are unchanged by CpG-DNA and LPS in enterocytes. Western blot showing levels of TLR4 and TLR9 (relative to actin) in enterocytes which were either untreated (Ctrl) or treated with LPS, LPS+CpG, or CpG.
FIG. 13A-E. CpG-DNA causes a redistribution of TLR4 into internal structures in IEC-6 cells. Immunofluorescence studies showing TLR4 distribution in IEC-6 cells which were either untreated (A) or treated with (B) LPS; (C) LPS+CpG; or (D) CpG. (E) is a schematic drawing showing redistribution of TLR4 caused by TLR9.
FIG. 14A-D. LPS causes the internalization of TLR9, which is reversed by CpG-DNA. Immunofluoresence studies of IEC-6 cells showing TLR9 distribution in cells which were either (A) untreated; or treated with (B) LPS; (C) LPS+CpG; or (D) CpG.
Further experiments were performed to study the mechanism by which TLR9 suppresses the TLR4 activation.

[4] = tested on: murine model of endotoxemia; experiment: Enterocyte apoptosis (caspase 3) in murine model of endotoxemia; type: in vivo, mouse; conditions: 5 mg/kg LPS + 1 mg/kg CpG-DNA vs LPS, 3 hours
Protocol: (A) Control mice (injected with saline). (B) Mice injected with 5 mg/kg of LPS. (C) Mice injected with 5 mg/kg of LPS and 1 mg/kg of CpG. (D-G) Immunohistochemical staining of terminal ileum from newborn mice that were either breast fed (“control”) or induced to develop NEC (“NEC”). Sections were stained for caspase 3 as a marker of apoptosis and enterocyte loss; positive staining is indicated by a small arrowhead. (D) Control injected with saline. (E) NEC injected with saline. (F) Control injected with 1 mg/kg CpG-DNA daily for four days. (G) NEC injected with 1 mg/kg CpG-DNA daily for four days. (H) Bar graph summarizing results, showing percent apoptosis in terminal ileum as depicted in (D)-(G).
Induction of necrotizing enterocolitis. All mice were housed and cared for at Rangos Research Center, Children's Hospital of Pittsburgh. All experiments were approved by the Children's Hospital of Pittsburgh Animal Care Committee and the Institutional Review Board of the University of Pittsburgh (protocol 45-06). Swiss-Webster (CfW) and C57/B1-6 mice were obtained from Jackson Laboratories (Jackson Laboratory, Bar Harbor, Me.). Endotoxemia was induced in 2 week old C57/B16 or CpG1 (TLR9-mutant) mice by the intraperitoneal injection of LPS (Escherichia coli 0111:B4 purified by gel-filtration chromatography, >99% pure, 5 mg/kg, Sigma-Aldrich, St. Louis, Mo.). […]

## 5′-TCCATGACGTTCCTGACGTT-3′ [CpG-DNA]
[1]; enterocytes with TLR9 expression suppressed by siRNA, 50 μg/ml LPS + 10 μM CpG
  attenuating effect of CpG on translocation of NFκB subunit p65: virtually eliminated
[1]; enterocytes, 50 μg/ml LPS + 10 μM CpG vs LPS alone
  extent of NFκB translocation into the nucleus caused by LPS: decreased
[2]
  LPS-mediated cytokine release (supernatant IL-6): reduces
[3]; IEC-6 cells, LPS + CpG
  LPS-caused internalization of TLR9: reversed
[3]; IEC-6 cells, immunofluorescence
  TLR4 distribution: causes a redistribution of TLR4 into internal enterocyte structures
[3]; enterocytes treated with CpG-DNA and LPS
  TLR4 and TLR9 expression: unchanged
[4]
  apoptosis in enterocytes of terminal ileum (caspase 3): substantially reduced
